Where two headings read alike, the source gives them in different places.
Columns and labels:
PfPFT = biological target: T1, PfPFT (Plasmodium falciparum, UniProt Q8I503+Q8IHP6); assay: PfPFT inhibition, scintillation proximity assay with partially purified PfPFT; format: biochemical; settings: for inhibition at 0.05 µM: read-out: % Inhibition of PfPFT at 50 nM, inhibitor at 50 nM; for inhibition at 0.005 µM: read-out: % Inhibition of PfPFT at 5 nM, inhibitor at 5 nM
T1 sequence (Q8I503 1-521): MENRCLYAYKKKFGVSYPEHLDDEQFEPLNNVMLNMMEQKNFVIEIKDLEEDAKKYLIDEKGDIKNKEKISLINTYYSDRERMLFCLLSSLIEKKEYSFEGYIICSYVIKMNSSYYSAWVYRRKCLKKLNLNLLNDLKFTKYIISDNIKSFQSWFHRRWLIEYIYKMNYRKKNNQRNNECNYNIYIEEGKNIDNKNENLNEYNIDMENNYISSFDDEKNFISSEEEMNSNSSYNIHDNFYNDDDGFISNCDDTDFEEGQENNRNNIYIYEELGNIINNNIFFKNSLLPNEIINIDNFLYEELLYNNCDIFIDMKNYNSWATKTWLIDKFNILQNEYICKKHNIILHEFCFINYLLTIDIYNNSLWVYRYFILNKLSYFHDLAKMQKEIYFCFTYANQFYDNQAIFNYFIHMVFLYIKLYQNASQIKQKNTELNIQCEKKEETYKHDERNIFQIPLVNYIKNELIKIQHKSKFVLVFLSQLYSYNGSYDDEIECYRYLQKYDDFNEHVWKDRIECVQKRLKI
T1 sequence (Q8IHP6 1-923): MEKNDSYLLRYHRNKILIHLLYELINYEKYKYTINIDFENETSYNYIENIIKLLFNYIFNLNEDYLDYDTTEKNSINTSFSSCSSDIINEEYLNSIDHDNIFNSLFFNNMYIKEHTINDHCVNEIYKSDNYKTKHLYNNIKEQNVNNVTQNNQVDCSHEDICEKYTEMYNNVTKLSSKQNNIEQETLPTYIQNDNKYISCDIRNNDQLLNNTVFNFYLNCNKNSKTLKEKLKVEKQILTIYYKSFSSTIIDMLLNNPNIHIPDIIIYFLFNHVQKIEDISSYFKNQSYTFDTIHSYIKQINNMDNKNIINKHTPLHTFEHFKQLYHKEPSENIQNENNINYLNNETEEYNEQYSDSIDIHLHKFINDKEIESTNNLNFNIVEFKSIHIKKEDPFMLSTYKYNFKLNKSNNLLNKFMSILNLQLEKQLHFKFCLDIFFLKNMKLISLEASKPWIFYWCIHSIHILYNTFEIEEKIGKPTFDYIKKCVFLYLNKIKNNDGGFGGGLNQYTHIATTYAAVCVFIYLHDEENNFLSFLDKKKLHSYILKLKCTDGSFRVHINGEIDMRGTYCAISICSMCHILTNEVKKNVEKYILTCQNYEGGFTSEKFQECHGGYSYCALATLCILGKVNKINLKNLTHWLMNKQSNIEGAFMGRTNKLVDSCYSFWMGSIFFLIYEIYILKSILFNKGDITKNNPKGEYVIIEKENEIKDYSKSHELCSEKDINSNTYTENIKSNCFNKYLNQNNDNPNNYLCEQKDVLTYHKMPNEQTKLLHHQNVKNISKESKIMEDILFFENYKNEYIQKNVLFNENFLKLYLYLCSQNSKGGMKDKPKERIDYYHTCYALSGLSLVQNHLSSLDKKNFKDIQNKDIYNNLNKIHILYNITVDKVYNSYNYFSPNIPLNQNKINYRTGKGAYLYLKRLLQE

P. falciparum 3D7 = assay: P. falciparum ED50 determination, [3H]-hypoxanthine incorporation, strain 3D7; format: cell-based, Plasmodium falciparum
Description: (§1) Plasmodium strains. The P. falciparum strains used in this study were 3D7 (Netherlands, sensitive) provided by Dr. Pradipsinh Rathod from the University of Washington and K1 (Thailand, ChQ-R, Pyr-R) obtained from the MR4Unit of the American Type Culture Collection (ATCC, Manassas, Va.).
(§2) P. falciparum culture. Strains of P. falciparum were sustained in vitro based on experimental techniques as described by Trager and Jensen.^26 Cultures were maintained in RPMI-1640 (Sigma, St. Louis, […].) with 2 mM L-glutamine, 25 mM HEPES, 33 mM NaHCO3, 20 μg/ml gentamicin sulfate and 20% (v/v) heat-inactivated human plasma type A+ (R^P-20P). Type A+ erythrocytes were obtained from lab donors, washed three times with RPMI, re-suspended in 50% RPMI, and stored at 4° C. Parasites were grown in 10 mL of a 2% hematocrit/RP-20P (v/v) in 50-mL flasks under a 5% CO2, 5% O2, and 90% N2 atmosphere.
(§3) P. falciparum ED50 determination. One […]L of PFTI dissolved in DMSO was added to each well of a 96-well plate followed by the addition of 200 μL of P. falciparum culture at parasitemia and hematocrit of 0.5%. Plates were flushed with 5% CO2, 5% O2, and 90% N2 then incubated at 37° C. for 48 hr. [8-^3H]-hypoxanthine (0.3 μCi, 20 Ci/mmol, American Radiolabeled Chemicals) in 30 μL RP-20P was added to cultures and incubated for an additional 24 hours. Cells were harvested onto filter mats by a Multiharvester (Skatron, Sunnyvale, Calif.) and the radioactivity incorporated into the parasites was counted on a β-scintillation counter. The background level detected with uninfected erythrocytes was subtracted from the data. The ^3H-incorporation into infected RBCs with 1 μL DMSO vehicle alone represents 100% malaria growth. ED50 values were determined by linear regression analysis of the plots of ^3H-hypoxanthine incorporation versus concentration of compound.

P. falciparum K1 = assay: P. falciparum ED50 determination, [3H]-hypoxanthine incorporation, strain K1; format: cell-based, Plasmodium falciparum
Description: as §1, §2, §3

[1] = Plasmodium falciparum, 3D7, strain 3D7, concentration decreasing hypoxanthine incorporation into parasites twofold, read-out: ED50 3D7
[2] = Plasmodium falciparum, K1, strain K1, concentration decreasing hypoxanthine incorporation into parasites twofold, read-out: ED50 K1

Structure (SMILES)	inhibition at 0.05 µM (PfPFT) [%]	inhibition at 0.005 µM (PfPFT) [%]	EC50 (P. falciparum 3D7; [1]) [nM]	EC50 (P. falciparum K1; [2]) [nM]	also measured
Cn1cnc(S(=O)(=O)N(CCN(Cc2cnc[nH]2)c2ccccc2)Cc2ccccc2)c1 [Compound 3c, 1-Methyl-1H-imidazole-4-sulfonic acid benzyl-{2-[(3H-imidazol-4-ylmethyl)-phenyl-amino]-ethyl}-amide]	32				
Cc1ccc(CS(=O)(=O)N(CCN(Cc2cnc[nH]2)c2ccccc2)Cc2ccccc2)cc1 [Compound 3d, N-Benzyl-N-{2-[(3H-imidazol-4-ylmethyl)-phenyl-amino]-ethyl}-C-p-tolyl-methanesulfonamide]	3				
O=S(=O)(c1ccc2ccccc2c1)N(CCN(Cc1cnc[nH]1)c1ccccc1)Cc1ccccc1 [Compound 3e, Naphthalene-2-sulfonic acid benzyl-{2-[(3H-imidazol-4-ylmethyl)-phenyl-amino]-ethyl}-amide]	0				
O=S(=O)(c1cccc2cccnc12)N(CCN(Cc1cnc[nH]1)c1ccccc1)Cc1ccccc1 [Compound 3f, Quinoline-8-sulfonic acid benzyl-{2-[(3H-imidazol-4-ylmethyl)-phenyl-amino]-ethyl}-amide]	0				
CN(C)c1cccc2c(S(=O)(=O)N(CCN(Cc3cnc[nH]3)c3ccccc3)Cc3ccccc3)cccc12 [Compound 3g, 5-Dimethylamino-naphthalene-1-sulfonic acid benzyl-{2-[(3H-imidazol-4-ylmethyl)-phenyl-amino]-ethyl}-amide]	0				
Cn1cnc(S(=O)(=O)N(CCN(Cc2cnc[nH]2)c2ccc(Br)cc2)Cc2ccccc2)c1 [Compound 8a, 1-Methyl-1H-imidazole-4-sulfonic acid benzyl-{2-[(4-bromo-phenyl)-(3H-imidazol-4-ylmethyl)-amino]-ethyl}-amide]	80				
Cn1cnc(S(=O)(=O)N(CCN(Cc2cncn2C)c2ccc(C#N)cc2)Cc2cccnc2)c1 [Compound 8ab, 1-Methyl-1H-imidazole-4-sulfonic acid {2-[(4-cyano-phenyl)-(3-methyl-3H-imidazol-4-ylmethyl)-amino]-ethyl}-pyridin-3-ylmethyl-amide]	74	18	2800	4250	
Cn1cnc(S(=O)(=O)N(CCN(Cc2cncn2C)c2ccc(C#N)cc2)Cc2ccncc2)c1 [Compound 8ac, 1-Methyl-1H-imidazole-4-sulfonic acid {2-[(4-cyano-phenyl)-(3-methyl-3H-imidazol-4-ylmethyl)-amino]-ethyl}-pyridin-4-ylmethyl-amide]	62	22	3700	5000	
Cn1cnc(S(=O)(=O)N(CCN(Cc2cncn2C)c2ccc(C#N)cc2)Cc2cccc(C#N)c2)c1 [Compound 8ad, 1-Methyl-1H-imidazole-4-sulfonic acid (3-cyano-benzyl)-{2-[(4-cyano-phenyl)-(3-methyl-3H-imidazol-4-ylmethyl)-amino]-ethyl}-amidem-cyanobenzyl]					% Inhibition of PfPFT at 5 nM (PfPFT; inhibitor at 5 nM): 45%; % Inhibition of PfPFT at 50 nM (PfPFT; inhibitor at 50 nM): 89%; EC50 (P. falciparum 3D7; strain 3D7, concentration decreasing hypoxanthine incorporation into parasites twofold, read-out: ED50 3D7): 350 nM; EC50 (P. falciparum K1; strain K1, concentration decreasing hypoxanthine incorporation into parasites twofold, read-out: ED50 K1): 1800 nM
Cn1cnc(S(=O)(=O)N(CCN(Cc2cncn2C)c2ccc(C#N)cc2)Cc2cccc(-c3ccccc3)c2)c1 [Compound 8af, 1-Methyl-1H-imidazole-4-sulfonic acid biphenyl-3-ylmethyl-{2-[(4-cyano-phenyl)-(3-methyl-3H-imidazol-4-ylmethyl)-amino]-ethyl}-amide]	93	56	2400	3250	
Cn1cnc(S(=O)(=O)N(CCN(Cc2cncn2C)c2ccc(C#N)cc2)Cc2ccc(-n3cccc3)cc2)c1 [Compound 8ai, 1-Methyl-1H-imidazole-4-sulfonic acid {2-[(4-cyano-phenyl)-(3-methyl-3H-imidazol-4-ylmethyl)-amino]-ethyl}-(4-pyrrol-1-yl-benzyl)-amide]	85	39	257	410	IC50 (PfPFT; concentration decreasing transferase activity twofold): 11 nM
Cn1cncc1CN(CCN(Cc1ccccc1)S(=O)(=O)c1cccs1)c1ccc(C#N)cc1 [Compound 8f, Thiophene-2-sulfonic acid benzyl-{2-[(4-cyano-phenyl)-(3-methyl-3H-imidazol-4-ylmethyl)-amino]-ethyl}-amide]	74	17	550	1120	
Cn1cncc1CN(CCN(Cc1ccccc1)S(=O)(=O)c1cccc2cccnc12)c1ccc(C#N)cc1 [Compound 8h, Quinoline-8-sulfonic acid benzyl-{2-[(4-cyano-phenyl)-(3-methyl-3H-imidazol-4-ylmethyl)-amino]-ethyl}-amide]	35	14	2100	2400	
CC(=O)N(CCN(Cc1cncn1C)c1ccc(C#N)cc1)Cc1ccccc1 [Compound 8j, N-Benzyl-N-{2-[(4-cyano-phenyl)-(3-methyl-3H-imidazol-4-ylmethyl)-amino]-ethyl}-acetamide]	56	0			EC50 (P. falciparum 3D7; Plasmodium falciparum, 3D7, read-out: ED50 3D7): 2500 nM; EC50 (P. falciparum K1; Plasmodium falciparum, K1, read-out: ED50 K1): > 5000 nM
CC(C)C(=O)N(CCN(Cc1cncn1C)c1ccc(C#N)cc1)Cc1ccccc1 [Compound 8k, N-Benzyl-N-{2-[(4-cyano-phenyl)-(3-methyl-3H-imidazol-4-ylmethyl)-amino]-ethyl}-isobutyramide]	61	0	2000	> 5000	
C=CCN(CCN(Cc1cncn1C)c1ccc(C#N)cc1)S(=O)(=O)c1cn(C)cn1 [Compound 8l, 1-Methyl-1H-imidazole-4-sulfonic acid allyl-{2-[(4-cyano-phenyl)-(3-methyl-3H-imidazol-4-ylmethyl)-amino]-ethyl}-amide]	42	1	> 5000	> 5000	

Reference: patent US20080312287A1, “Compound and Methods For the Treatment of Cancer and Malaria” (University of Washington, priority 2005, published 2008)
